Results as given in patent US20030138773A1, “METHODS OF TRANSCRIPTIONALLY MODULATING GENE EXPRESSION” (priority 1989, published 2003).

Columns and labels:
[1] = system: mouse mammary tumor virus (MMTV) promoter; experiment: MMTV promoter-luciferase reporter, cell clone M10 (high-throughput screen); type: cell-based; conditions: for stimulation of the MMTV promoter in cell clone M10 by steroids: FIG. 43
Description: NIH/3T3 fibroblast cells (ATCC number CRL 1658) were used for transfection of plasmids containing the mouse mammary tumor virus (MMTV) promoter linked to firefly luciferase coding sequences (see below). Cells were propagated in Dulbecco's modified Eagle's medium (DMEM) obtained from Gibco, Grand Island, N.Y. and supplemented with 10% FCS. For high-throughput (HTP) screening, transfected NIH/3T3 clones were transferred to serum free defined medium consisting of Iscove's modified Eagle's medium (IMEM) and Ham's F12 medium (1:1) supplemented with growth factors, hormones and nutrients as described previously (43).
The firefly luciferase gene was removed from the plant expression plasmid pDO432 (33) (FIG. 1) as a 1.9 kb BamHI fragment and cloned into the BamHI site of pSVL (Pharmacia, Piscataway, N.J.), a mammalian expression vector containing the SV40 promoter. The resulting plasmid (pSVLuci; FIG. 2) was digested with XhoI and SalI to produce a 2.4 kb fragment containing the luciferase coding sequences and the SV40 late polyadenylation site. This fragment was inserted into the XhoI site of pMSG (Pharmacia, Piscataway, N.J.), a eukaryotic expression vector containing the MMTV promoter. The resulting MMTV promoter-luciferase fusion plasmid (pMLuci; FIG. 3) was used to transfect NIH/3T3 cells as described below (section El). Similar constructs can be made using luciferase vectors from Clontech (Palo Alto, Calif.).
pMluci (FIG. 3) and pSV2Neo, an antibiotic resistance plasmid (34), were co-transfected into NIH/3T3 mouse fibroblast cells using the calcium phosphate precipitation method (15) with a commercially available kit (Pharmacia, Piscataway N.J.). […] Once sufficient cell numbers were obtained, clones were analyzed based on several criteria: constitutive luciferase production, induction of luciferase expression by dexamethasone (1 μM, Sigma, St. Louis, Mo.), satisfactory attachment to microtiter plates used in the high-throughput screen (see section G) and acceptable standard deviation in multiple luciferase expression assays (see below for assay protocol). […]

G-CSF mRNA = experiment: Northern blot of endogenous G-CSF mRNA in 5637 cells; type: cell-based, human; conditions: G-CSF-specific probe, compared to solvent DMSO, FIG. 46
Experimental: Total cellular RNA was isolated from the G21 cell clone or from untransfected 5637 cells following incubation for 6 hours with various transcriptionally modulating chemicals identified in the high-throughput screen. Cells were grown in serum free medium as described above. Total cellular RNA was isolated using the RNAZol method (CINNA/BIOTECX, Friendswood, Tex., Laboratories International, Inc.). Cells were resuspended and lysed with RNAZol solution (1.5 ml/9 cm petri dish) and the RNA was solubilized by passing the lysate a few times through a pipette. Chloroform was added to the homogenate (0.1 ml/1 ml), and samples were shaken for 15 seconds followed by a 5 minute incubation on ice. After centrifuging for 10 minutes, the upper phase was collected and an equal volume of isopropanol was added. Samples were incubated for 45 minutes at −20° C., and the RNA was pelleted for 15 minutes at 12,000×g at 4° C. The RNA pellet was then washed with 70% ethanol and dried briefly under vacuum.
Total cellular RNA was isolated from 5637 cells following incubation with chemicals as described above and electrophoresed in a 1% Agarose-1M Formaldehyde gel. […] Bands were excised and counted in a liquid scintillation counter (LKB, Gaithersburg, Md.), and counts obtained with the G-CSF specific probe were normalized relative to the counts obtained with the B-Actin specific probe.

human G-CSF promoter = experiment: G-CSF promoter-luciferase reporter, cell clone G21 (high-throughput screen); type: cell-based; conditions: 5 μg/ml; FIG. 42
Description: A human bladder carcinoma cell line (U5637, ATCC number HTB 9) was used for transfection of plasmids containing the human Granulocyte-Colony Stimulating Factor (G-CSF) promoter (see below) and was maintained in RPMI medium supplemented with 10% FCS. For HTP screening, transfected 5637 clones were transferred to a serum free defined medium identical to that used for the NIH/3T3 clones.
The sequences of OL-1, OL-2 and OL-5 recognize the G-CSF promoter region, OL-4 recognizes the first intron/exon junction and OL-3 recognizes sequences within the second exon (32). […]
(§1) To assay for luciferase expression in transient expression assays in the various transfected clones, cells were incubated with various transcriptional inducers in serum free defined media, washed 3 times with Dulbecco's phosphate-buffered saline (D-PBS, Gibco) and lysed in Lysis Buffer 1 (50 mM Tris acetate pH 7.9, 1 mM EGTA, 10 mM magnesium acetate, 1 mg/ml bovine serum albumin [BSA], 0.5% Brij 58, 2 mM ATP, 100 mM dithiothreitol [DTT]). […] Samples were counted individually in an LKB (Gaithersburg, Md.) scintillation counter on a setting which allows measurement of individual photons by switching off the coincidence circuit. […]

[2] = system: human growth hormone promoter; experiment: hGH promoter-luciferase reporter, cell clone 532 (high-throughput screen); type: cell-based; conditions: 100 nM; FIG. 42
Description: A rat pituitary cell line, designated GC, (4, 25) was used for transfection of plasmids containing the human growth hormone promoter (see below) and was maintained in DMEM and Ham's F12 medium (1:1), supplemented with 12.5% FCS. For HTP screening, transfected GC clones were transferred to serum free defined medium consisting of DMEM and Ham's F12 medium (1:1) supplemented with growth factors, hormones and nutrients as described previously (17, 5).
The SalI-XhoI fragment of pSVLuci (FIG. 2) containing the luciferase coding sequences and the SV40 late polyadenylation site was inserted into pUC 8 (Biorad, Richmond, Calif.), which had been linearized by a SmaI/HinCII digestion and ligated to XhoI linkers (New England Biolabs, Beverly, Mass.). […]
as §1

**Q.** For C[C@]12CCC(=O)C=C1CC[C@@H]1[C@@H]2[C@@H](O)C[C@]2(C=O)[C@@H](C(=O)CO)CC[C@@H]12 [aldosterone], which “stimulation of the MMTV promoter in cell clone M10 by steroids” value [1] is on record?
**A.** stimulates

**Q.** How did the “stimulation of luciferase expression, clone M10” value ([1]; 1 μM, FIG. 42) turn out when C[C@@H]1C[C@H]2[C@@H]3CCC4=CC(=O)C=C[C@]4(C)[C@@]3(F)[C@@H](O)C[C@]2(C)[C@@]1(O)C(=O)CO [dexamethasone] was run?
**A.** 11.6 fold

**Q.** Which “stimulation of the MMTV promoter in cell clone M10 by steroids” value [1] does the source give for CC(=O)[C@H]1CC[C@H]2[C@@H]3CCC4=CC(=O)CC[C@]4(C)[C@H]3CC[C@]12C [progesterone] here?
**A.** did not

**Q.** Which “production of endogenous G-CSF mRNA” value (G-CSF mRNA) does the source give for “IFN-gamma: a proteinaceous positive regulator” here?
**A.** increased

**Q.** With lipopolysaccharide as the molecule, how does the “stimulation of luciferase expression, clone G21” value (human G-CSF promoter) read?
**A.** 5.7 fold

**Q.** How did the “stimulation of luciferase expression, clone 532” value [2] turn out when “rat growth hormone releasing factor: known inducer of hGH expression (Bachem) (HADAIFTSSYRRILGQLYARKLLHEIMNRQQGERNQEQRSRFN; Somatoliberin; UniProt P09916 31-73, looked up)” was run?
**A.** 2.2 fold
